Values of other authors, collected in patent US20100204282A1, “Reverse indoles as 5-lipoxygenase-activating protein (FLAP) inhibitors” (priority 2007, published 2010).

Experiments:
[1] = for efficacy in asthma: in vivo
[2] = system: rat photochemical model of endothelial injury
[3] = system: porcine carotid injury model
[4] = system: mouse model of renal ischemia

Row | Compound | efficacy in asthma [1] | other results
1 | O=C(O)[C@@H](c1ccc(OCc2ccc3ccccc3n2)cc1)C1CCCC1 [BAY X1005, (R)-2-[4-(quinolin-2-yl-methoxy)phenyl]-2-cyclopentyl acetic acid] | have efficacy in asthma | –
2 | CC(C)(C)Sc1c(CC(C)(C)C(=O)O)n(Cc2ccc(Cl)cc2)c2ccc(OCc3ccc4ccccc4n3)cc12 [MK-0591, 2-((5-((quinolin-2-yl)methoxy)-1-(4-chlorobenzyl)-3-(tert-butylthio)-1H-indol-2-yl)methyl)-2-methylpropanoic acid] | have efficacy in asthma | –
3 | CC(C)c1ccc2c(c1)c(SC(C)(C)C)c(CC(C)(C)C(=O)O)n2Cc1ccc(Cl)cc1 [MK-886, 2-((1-(4-chlorobenzyl)-3-(tert-butylthio)-5-isopropyl-1H-indol-2-yl)methyl)-2-methylpropanoic acid] | have efficacy in asthma | femoral artery intimal hyperplasia [2]: suppresses femoral artery intimal hyperplasia; postangioplasty vasoconstrictive response [3]: decreases the postangioplasty vasoconstrictive response
4 | CC(C)(O)c1ccccc1CCC(SCC1(CC(=O)O)CC1)c1cccc(C=Cc2ccc3ccc(Cl)cc3n2)c1 (stereo not drawn) [montelukast, [1-[[1-[3-[2-[(7-chloro-2-quinolyl)]vinyl]phenyl]-3-[2-(1-hydroxy-1-methyl-ethyl)phenyl]-propyl]sulfanylmethyl]cyclopropyl]acetic acid] | – | efficacy in asthma and allergic rhinitis ([1]; CysLT1 receptor antagonist): efficacious in asthma and allergic rhinitis
5 | COc1cc(C(=O)NS(=O)(=O)c2ccccc2C)ccc1Cc1cn(C)c2ccc(NC(=O)OC3CCCC3)cc12 [zafirlukast] | efficacious in asthma | –
6 | CC(c1cc2ccccc2s1)N(O)C(N)=O (stereo not drawn) [zileuton] | has efficacy in asthma | renal ischemia [4]: reduce renal ischemia
